Data reported in patent publication US6541463B1, “Inhibitors of type 5 and type 3 17β-hydroxysteroid dehydrogenase and methods for their use” (Endorecherche, Inc., priority 1998, dated 2003).
Like-named read-outs stand apart in the source and are kept apart here.

Columns and labels:
[1] = tested on: Shionogi mouse mammary carcinoma cells; test: Antiandrogenic activity: inhibition of DHT-induced proliferation of Shionogi cells; assay type: cell-based; conditions: for Antiandrogenic Activity Shionogi, DHT E^−6 / Antiandrogenic Activity Shionogi, DHT E^−7: DHT-induced proliferation; for Antiandrogenic Activity Shionogi, DHT E^−6: E^−6 (10^−6 M)
How it was run: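 Androgen-sensitive Shionogi mouse mammary carcinoma cells, 20 000/well, were grown 10–12 days in charcoal-stripped serum with increasing agent concentrations in triplicate, with medium changed every 3–4 days. Cell number was counted directly, and ED50 was derived by least-square regression.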

glucocorticoid receptor = biological target: T1, glucocorticoid receptor (Rattus norvegicus, UniProt P06536); test: Glucocorticoid receptor assay: inhibition of [3H]-dexamethasone binding, liver cytosol; conditions: for inhibition at 1 µM: read-out: % Inhibition Glucocorticold Receptor E^−6; for inhibition at 0.01 µM: read-out: % Inhibition Glucocorticold Receptor E^−8
T1 construct: from tissue; host or cells: liver cytosol of male Sprague-Dawley rats
T1 sequence (P06536 1-795): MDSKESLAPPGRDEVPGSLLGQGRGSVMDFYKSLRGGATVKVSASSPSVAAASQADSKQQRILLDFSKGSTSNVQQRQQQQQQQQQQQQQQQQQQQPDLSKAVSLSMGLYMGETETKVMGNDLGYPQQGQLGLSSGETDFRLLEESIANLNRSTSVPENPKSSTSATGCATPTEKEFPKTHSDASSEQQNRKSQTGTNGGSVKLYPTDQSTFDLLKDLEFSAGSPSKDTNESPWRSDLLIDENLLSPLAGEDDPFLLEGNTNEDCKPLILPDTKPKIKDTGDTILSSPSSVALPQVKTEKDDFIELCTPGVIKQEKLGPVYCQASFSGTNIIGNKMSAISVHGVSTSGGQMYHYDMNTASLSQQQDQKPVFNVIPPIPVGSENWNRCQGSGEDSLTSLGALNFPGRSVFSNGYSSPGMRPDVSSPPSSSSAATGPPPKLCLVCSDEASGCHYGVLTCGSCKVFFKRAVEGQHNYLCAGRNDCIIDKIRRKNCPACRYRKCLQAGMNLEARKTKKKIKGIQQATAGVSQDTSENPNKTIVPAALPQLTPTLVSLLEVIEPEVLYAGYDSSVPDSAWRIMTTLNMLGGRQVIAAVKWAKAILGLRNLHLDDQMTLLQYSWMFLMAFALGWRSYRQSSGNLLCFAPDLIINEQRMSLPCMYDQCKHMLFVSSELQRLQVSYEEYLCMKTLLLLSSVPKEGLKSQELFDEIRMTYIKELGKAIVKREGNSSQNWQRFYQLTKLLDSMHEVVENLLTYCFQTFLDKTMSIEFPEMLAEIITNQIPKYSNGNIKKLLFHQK
Experimental: The manner in which the percentage of inhibition is determined is described in “Other Tests; F-Glucocorticoid Receptor Assay”.
[6,7-^3H(N)]-Dexamethasone (39 Ci/mmol) was purchased from New England Nuclear (Lachine, Québec, Canada) while unlabeled dexametasone was obtained from Steraloids (Wilton, N.H.). All other chemicals were of analytical grade.
Stock solutions of the unlabeled steroids were kept at 4° C. in ethanol. The desired steroid solutions were then prepared by appropriate dilution in buffer B (10 mM Tris-HCl, 1.5 mM EDTA, 10 mM α-monothioglycerol, pH 7.4) containing 30% ethanol.
Male Sprague-Dawley rats weighing 200-300 g were obtained from Charles-River Inc. (St-Constant, Québec, Canada). The rats were killed by cervical dislocation and the liver were rapidly removed, dissected free from adhering tissue and frozen on dry-ice. Tissues were kept at −80° C. until use.
All procedures were performed at 4° C. Tissues were eminced and homogenized in 10 vol (w/v) of buffer A (25 mM Tris-HCl, 1.5 mM EDTA, 10 mM α-monothioglycerol, 10% glycerol, 10 mM sodium molybdate, pH 7.4) using a Polytron PT-10 homogenizer (Brinkmann Instruments, Canada) at a setting of 5 for two periods of 10 sec, with intervals of 10 sec for cooling. The homogenate was then centrifuged at 105,000×g for 90 min. The supernatant was used immediately for assay.
Glucocorticoid binding was measured using the dextran-coated charcoal adsorption technique. Incubations were performed at 0-4° C. for 16-18 h using 100 μl of cytosol, 100 μl of [^3H]-Dexamethasone (5 nM final) and 100 μl of unlabeled compounds at the indicated concentrations. Each concentration was done in triplicate. Assay was ended with 300 μl of DCC (2.5% Norit A and 0.25% Dextran T-70 in Buffer B). After 10 min of incubation, tubes were centrifuged at 2,000×g for 10 min. and decanted in vials with 6 ml of BCS liquid scintillation (New England Nuclear, Dupont). The radioactivity was measured in a Beckman counter at a counting efficiency of 35%.

[2] = Mus musculus, Table 4′, bracketed values, read-out: Antiandrogenic Activity Shionogi, DHT [IC50 (nM)]

SMILES	Antiandrogenic Activity Shionogi, DHT E^−6 ([1]; Table 4′)	Antiandrogenic Activity Shionogi, DHT E^−7 ([1]; Table 4′)	inhibition at 1 µM (glucocorticoid receptor; Table 4′, E^−6)	inhibition at 0.01 µM (glucocorticoid receptor; Table 4′, E^−8)	other results
COc1ccc2c(c1)C(=O)CC1C3CCC4(CCC(C)(C)C(=O)O4)C3(C)CCC21O (stereo not drawn) [EM-1386]	−27%	0%	0%	3%	–
CN(C)CCOc1ccc2c(c1)CCC1C2CCC2(C)C1CCC21CCC(C)(C)C(=O)O1 (stereo not drawn) [EM-1389-CS]	−103%	−94%	3%	0%	–
CC1(C)CCC2(CCC3C4CCc5cc(OCCN6CCCCC6)ccc5C4CCC32C)OC1=O [EM-1390-CS, 3-(N-piperidyl-ethyl)-1,3,5(10)-estratrien-17(R)-spiro-2′-(5′,5′-dimethyl-6′-oxo)-tetrahydropyran]	−119%	−36%	0%	2%	–
CC1(C)CCC2(CCC3C4CCc5c(cc(Cl)c(O)c5Cl)C4CCC32C)OC1=O (stereo not drawn) [EM-1391-CS]	−19%	0%	2%	0%	–
CC1(C)CCC2(CCC3C4CCc5c(cc(Cl)c(OS(C)(=O)=O)c5Cl)C4CCC32C)OC1=O (stereo not drawn) [EM-1392-CS]	−75%	0%	8%	0%	–
COc1ccc2c(c1)C(=O)CC1C2CC[C@@]2(C)C1CC[C@@]21CCC(C)(C)C(=O)O1 (stereo partly drawn) [EM-1394]	−23%	0%	2%	3%	–
COCCOc1cc2c(cc1C#N)C1CC[C@@]3(C)C(CC[C@@]34CCC(C)(C)C(=O)O4)C1CC2 (stereo partly drawn) [EM-1396]	−29%	−16%	1%	0%	–
CC1(C)CC[C@@]2(CCC3C4CCc5cc(C(=O)O)ccc5C4CC[C@@]32C)OC1=O (stereo partly drawn) [EM-1401, 3-Carboxy-1,3,5(10)-estratrien-17(R)-spiro-2′-(5′,5′-dimethyl-6′-oxo)tetrahydropyran]	–	–	2%	4%	IC50 [1, 2]: > 1000 nM
COCCOc1cc2c(cc1C(=O)OC)C1CC[C@@]3(C)C(CC[C@@]34CCC(C)(C)C(=O)O4)C1CC2 (stereo partly drawn) [EM-1402-CS, 2-Carbomethoxy-3-(2″-methoxyethyloxy)-1,3,5(10)-estratrien 17(R)-spiro-2′-(5′,5′-dimethyl-6′-oxo)tetrahydropyran]	−87%	−13%	7%	4%	–
CN(C)C(=O)c1ccc2c(c1)CCC1C2CCC2(C)C1CCC21CCC(C)(C)C(=O)O1 (stereo not drawn) [EM-1403]	−54%	0%	0%	0%	inhibition at 1 µM ([1]; Mus musculus, 10^−6 M inhibitor, negative number = stimulation reduced, read-out: percentage of inhibition of DHT-induced proliferation of Shionogi cells): 54%
CC1(C)CC[C@@]2(CCC3C4CCc5cc(C(N)=O)ccc5C4CCC32C)OC1=O (stereo partly drawn) [EM-1404]	–	–	0%	0%	IC50 [1, 2]: ~1000 nM
COCCOc1cc2c(cc1C(=O)O)C1CCC3(C)C(CCC34CCC(C)(C)C(=O)O4)C1CC2 [EM-1405, 2-Carboxy-3-(2″-methoxyethyloxy)-1,3,5(10)-estratrien-17(R)-spiro-2′-(5′,5′-dimethyl-6′-oxo)tetrahydropyran]	0%	0%	0%	0%	–
CC1(C)CC[C@@]2(CCC3C4CCc5cc6oncc6cc5C4CC[C@@]32C)OC1=O (stereo partly drawn) [EM-1407-CS, 1,3,5(10)-estratrien-(2,3-oximino)-17(R)-spiro-2′-(5′,5′-dimethyl-6′-oxo)tetrahydropyran]	−96%	−16%	0%	0%	–
COCCOc1ccc2c(c1)C(=O)CC1C2CCC2(C)C1CCC21CCC(C)(C)C(=O)O1 (stereo not drawn) [EM-1408-CS]	−94%	−19%	0%	0%	–
COc1cc2c(cc1C)C1CCC3(C)C(CCC34CCC(C)(C)C(=O)O4)C1CC2 (stereo not drawn) [EM-1412-CS]	−60%	0%	2%	0%	–
COCCOc1cc2c(cc1C(N)=O)C1CC[C@@]3(C)C(CC[C@@]34CCC(C)(C)C(=O)O4)C1CC2 (stereo partly drawn) [EM-1424, 2-Carbamoyl-3-(2″-methoxyethyloxy)-1,3,5(10)-estratrien 17(R)-spiro-2′-(5′,5′-dimethyl-6′-oxo)tetrahydropyran]	−58%	−22%	0%	0%	–
COCCOc1cc2c(cc1C(F)(F)F)[C@H]1CC[C@@]3(C)[C@@H](CC[C@@]34CCC(C)(C)C(=O)O4)[C@@H]1CC2 [EM-1438, 3-(2′-Methoxyethoxy)-2-trifluoromethyl-1,3,5(10)-estratrien-17(R)-spiro-2′-(5′,5′-dimethyl-6′-oxo)tetrahydropyran]	−53%	0%	–	–	% Inhibition Glucocorticold Receptor E^−6 (glucocorticoid receptor; Table 4′, E^−6): 0%; % Inhibition Glucocorticold Receptor E^−8 (glucocorticoid receptor; Table 4′, E^−8): 1%
CC(=O)O[C@]1(C(C)=O)CCC2C3C=C(C)C4=CC(=O)CC[C@]4(C)C3CC[C@@]21C (stereo partly drawn) [megestrol acetate, reference compound]	–	–	–	–	IC50 ([1]; Mus musculus, read-out: Antiandrogenic Activity Shionogi, DHT [IC50]): 10 nM; % Inhibition Glucocorticoid Receptor (glucocorticoid receptor; * E^−5): 98* %; % Inhibition Glucocorticoid Receptor (glucocorticoid receptor; * E^−7): 17* %; % Inhibition Glucocorticoid Receptor (glucocorticoid receptor; E^−6): 82%; % Inhibition Glucocorticoid Receptor (glucocorticoid receptor; E^−8): 0%
